Experimental data reported in ChEMBL document CHEMBL1201862, “PubChem BioAssay data set” (2004).
The source made the active and inactive calls.

Key:
[1] = biological target: T1, CAAX prenyl protease 2 (Saccharomyces cerevisiae S288c, UniProt Q03530); type: biochemical
T1 sequence (Q03530 whole entry): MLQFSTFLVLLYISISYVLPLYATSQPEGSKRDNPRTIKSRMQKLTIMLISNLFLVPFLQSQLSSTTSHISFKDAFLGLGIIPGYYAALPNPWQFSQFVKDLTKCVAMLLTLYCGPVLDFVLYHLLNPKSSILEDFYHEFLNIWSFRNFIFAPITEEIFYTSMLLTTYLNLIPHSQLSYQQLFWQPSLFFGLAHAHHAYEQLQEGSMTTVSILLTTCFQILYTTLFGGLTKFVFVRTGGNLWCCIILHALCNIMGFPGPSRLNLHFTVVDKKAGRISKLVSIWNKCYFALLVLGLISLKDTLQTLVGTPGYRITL

[2] = biological target: T2, Coagulation factor XII (Homo sapiens, UniProt P00748); type: functional;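 note: activated factor XIIa alpha cleaving a fluorogenic AMC peptide substrate; inhibitor potency from loss of enzyme activity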
T2 sequence (P00748 whole entry): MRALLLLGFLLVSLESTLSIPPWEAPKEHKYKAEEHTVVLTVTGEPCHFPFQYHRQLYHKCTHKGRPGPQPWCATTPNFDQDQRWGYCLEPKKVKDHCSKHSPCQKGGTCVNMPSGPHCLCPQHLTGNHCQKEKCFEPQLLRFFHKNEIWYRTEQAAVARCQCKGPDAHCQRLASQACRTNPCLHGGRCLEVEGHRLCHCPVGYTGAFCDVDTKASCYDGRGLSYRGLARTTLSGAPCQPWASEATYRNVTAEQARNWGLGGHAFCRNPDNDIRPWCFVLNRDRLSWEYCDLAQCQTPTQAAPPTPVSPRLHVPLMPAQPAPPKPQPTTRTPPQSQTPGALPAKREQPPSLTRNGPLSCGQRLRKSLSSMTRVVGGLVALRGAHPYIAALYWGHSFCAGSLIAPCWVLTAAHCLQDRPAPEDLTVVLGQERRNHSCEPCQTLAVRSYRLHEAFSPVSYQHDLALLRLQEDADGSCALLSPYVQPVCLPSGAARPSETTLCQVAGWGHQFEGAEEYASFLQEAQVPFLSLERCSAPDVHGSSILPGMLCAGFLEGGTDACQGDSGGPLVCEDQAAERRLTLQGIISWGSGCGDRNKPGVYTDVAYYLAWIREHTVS

[3] = inhibitors of intracellular T. cruzi replication, confirmation, NIH3T3 host cells, beta-gal luminescence (AID 2044); type: functional, cell-based;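 note: intracellular parasites grown in NIH/3T3 mouse fibroblasts as host cells; luminescent beta-galactosidase reporter signal from transgenic T. cruzi replicating inside host cells; inhibitors lower the luminescence signal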
[4] = microbe, parasite or virus in culture; type: functional; conditions: Mycobacterium tuberculosis
[5] = biological target: T3, Bcl-2-related protein A1 (Mus musculus, UniProt Q07440); type: functional;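 note: confirmatory dose–response counterscreen on Bfl-1, used to check hits from a UBC13 polyubiquitin inhibitor campaign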
T3 sequence (Q07440 whole entry): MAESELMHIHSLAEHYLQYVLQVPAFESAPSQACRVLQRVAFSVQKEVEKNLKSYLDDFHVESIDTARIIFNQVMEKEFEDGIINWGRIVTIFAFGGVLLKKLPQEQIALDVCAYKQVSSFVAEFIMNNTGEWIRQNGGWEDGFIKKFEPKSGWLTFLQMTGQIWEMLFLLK

[6] = biological target: T4, Ubiquitin-conjugating enzyme E2 N (Homo sapiens, UniProt P61088); type: functional
T4 sequence (P61088 whole entry): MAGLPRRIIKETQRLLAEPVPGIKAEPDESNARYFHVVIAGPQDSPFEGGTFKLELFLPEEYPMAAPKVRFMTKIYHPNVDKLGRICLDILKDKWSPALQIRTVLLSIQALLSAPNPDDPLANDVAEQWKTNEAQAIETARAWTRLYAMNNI

[7] = biological target: T4, Ubiquitin-conjugating enzyme E2 N; type: functional; remark: listed apart in the source
[8] = cytotoxicity toward NIH3T3 fibroblasts, dose response, counter-screen, cell-based, ATP luminescence, mouse fibroblasts (AID 2010); type: functional;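 note: cells exposed to compound for about 90 hours before reading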
[9] = biological target: T5, Mannose-6-phosphate isomerase (Homo sapiens, UniProt P34949); test: PMI enzyme inhibitors, confirmation, biochemical, fluorescence intensity (AID 1535)
T5 sequence (P34949 whole entry): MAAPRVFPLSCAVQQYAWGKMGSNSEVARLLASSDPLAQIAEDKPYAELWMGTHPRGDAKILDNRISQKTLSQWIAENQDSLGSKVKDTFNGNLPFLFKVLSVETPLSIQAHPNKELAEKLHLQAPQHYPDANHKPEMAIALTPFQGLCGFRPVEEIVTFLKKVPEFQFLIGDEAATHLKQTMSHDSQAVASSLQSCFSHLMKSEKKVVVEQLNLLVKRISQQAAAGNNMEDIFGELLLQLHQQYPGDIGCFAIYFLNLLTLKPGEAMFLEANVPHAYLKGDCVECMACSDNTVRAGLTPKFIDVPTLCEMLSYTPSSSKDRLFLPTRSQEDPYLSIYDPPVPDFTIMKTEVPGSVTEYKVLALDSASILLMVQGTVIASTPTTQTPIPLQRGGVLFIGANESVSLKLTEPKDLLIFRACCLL

[10] = biological target: T6, Phosphomannomutase 2 (Homo sapiens, UniProt O15305); test: Counter screen SAR assay for PMM2 inhibitors via a fluorescence intensity assay. [Related pubchem assays (depositor defined):AID1545, AID1574]
T6 sequence (O15305 whole entry): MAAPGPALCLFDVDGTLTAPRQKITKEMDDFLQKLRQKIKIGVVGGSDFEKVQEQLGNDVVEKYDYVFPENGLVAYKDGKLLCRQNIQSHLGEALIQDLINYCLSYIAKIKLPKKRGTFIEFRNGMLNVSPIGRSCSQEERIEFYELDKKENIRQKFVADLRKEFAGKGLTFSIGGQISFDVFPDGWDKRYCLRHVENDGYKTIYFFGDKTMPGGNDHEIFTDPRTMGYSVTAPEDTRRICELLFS

[11] = biological target: Peroxisome proliferator-activated receptor gamma/Nuclear receptor coactivator 2 (Homo sapiens, UniProt P37231); test: (§1) TR-FRET dose response biochemical High Throughput Screening assay for agonists of the steroid receptor coactivator 2 (SRC-2) recruitment by the peroxisome proliferator-activated receptor gamma (PPAR gamma): non-selective agonists. [Related pubchem assays: 1297, 1032 ]; type: functional
[12] = biological target: Peroxisome proliferator-activated receptor gamma/Nuclear receptor coactivator 1 (Homo sapiens, UniProt P37231); test: as §1, with “1 (SRC-1)” for “2 (SRC-2)”, “assays (depositor defined):AID1300, AID1808, AID504735, AID631]” for “assays: 1297, 1032 ]”; type: protein assay
[13] = biological target: Peroxisome proliferator-activated receptor gamma/Nuclear receptor coactivator 3 (Homo sapiens, UniProt P37231); test: as §1, with “3 (SRC-3)” for “2 (SRC-2)”, “1301 (Confirmation screen.), 1048 (Primary screen.)]” for “1297, 1032 ]”; type: functional
[14] = biological target: Voltage-gated inwardly rectifying potassium channel KCNH2 (Homo sapiens, UniProt Q12809); conditions: Potency;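 note: confirmatory quantitative high-throughput screen measuring inhibition of hERG channel activity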
[15] = biological target: Cytochrome P450 2C9 (Homo sapiens, UniProt P11712)
[16] = biological target: T7, Hexokinase (Trypanosoma brucei, UniProt Q38C41); test: Confirmation assay for inhibitors of Trypanosoma brucei hexokinase 1-Analogue-first series. [Related pubchem assays (depositor defined):AID1430, AID1632, AID2516, AID2560, AID2579, AID2600, AID449725, AID492951]; type: functional
T7 sequence (Q38C41 whole entry): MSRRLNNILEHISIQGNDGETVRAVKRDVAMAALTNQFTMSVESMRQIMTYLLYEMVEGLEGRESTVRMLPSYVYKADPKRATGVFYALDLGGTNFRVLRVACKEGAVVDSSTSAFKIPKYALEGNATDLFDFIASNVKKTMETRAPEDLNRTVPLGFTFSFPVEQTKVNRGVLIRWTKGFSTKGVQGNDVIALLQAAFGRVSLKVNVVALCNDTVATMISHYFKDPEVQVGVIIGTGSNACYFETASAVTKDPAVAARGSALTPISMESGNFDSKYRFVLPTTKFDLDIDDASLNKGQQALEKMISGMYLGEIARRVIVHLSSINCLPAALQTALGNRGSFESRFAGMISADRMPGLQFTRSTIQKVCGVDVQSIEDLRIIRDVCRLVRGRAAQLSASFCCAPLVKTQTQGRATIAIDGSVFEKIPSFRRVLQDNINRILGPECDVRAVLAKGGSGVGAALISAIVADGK

[17] = biological target: 5-hydroxytryptamine receptor 2A (Mus musculus, UniProt P35363); type: functional, cell-based;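 note: CHO-K1 cells with tagged receptor and beta-arrestin; agonist potency measured as compound-induced activation of the receptor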
[18] = biological target: Mu-type opioid receptor (Homo sapiens, UniProt P35372); type: functional, cell-based;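 note: U2OS cells with beta-arrestin recruitment to OPRM1 by beta-gal complementation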
[19] = biological target: Dual specificity tyrosine-phosphorylation-regulated kinase 1A (Rattus norvegicus, UniProt Q63470); type: biochemical, Homo sapiens
[20] = test system: HEK293; test: cytotoxicity in HEK293T NF-kB-Luc cells, SAR follow-up, cytotoxicity control for NF-kB activator project, cell-based, resazurin fluorescence (AID 493251); type: functional; conditions: Homo sapiens
[21] = biological target: T8, Heat shock factor protein 1 (Mus musculus, UniProt P38532); test: inhibition of MG132-induced HSE-luciferase signal, confirmation, cell-based, NIH3T3, luminescence, dose retest (AID 2382); type: functional;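 note: NIH3T3 fibroblasts with HSF1-driven luciferase reporter stressed by proteasome inhibitor MG132; luminescence from HSF1-driven luciferase expression after 8 hours of MG132 stress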
T8 sequence (P38532 whole entry): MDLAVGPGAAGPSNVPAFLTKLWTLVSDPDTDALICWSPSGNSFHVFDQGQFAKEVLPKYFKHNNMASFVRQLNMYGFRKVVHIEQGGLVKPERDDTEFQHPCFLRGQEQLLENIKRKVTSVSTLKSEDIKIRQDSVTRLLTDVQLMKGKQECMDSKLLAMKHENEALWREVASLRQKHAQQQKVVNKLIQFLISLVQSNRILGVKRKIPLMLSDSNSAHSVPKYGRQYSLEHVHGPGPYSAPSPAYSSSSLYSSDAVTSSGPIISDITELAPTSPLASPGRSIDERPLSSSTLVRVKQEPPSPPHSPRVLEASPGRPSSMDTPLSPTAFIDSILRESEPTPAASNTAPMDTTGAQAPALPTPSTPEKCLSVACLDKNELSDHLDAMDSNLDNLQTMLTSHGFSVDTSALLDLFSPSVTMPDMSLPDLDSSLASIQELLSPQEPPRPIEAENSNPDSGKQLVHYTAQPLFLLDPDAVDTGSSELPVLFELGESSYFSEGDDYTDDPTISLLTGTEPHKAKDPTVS

[22] = inhibitors of SNCA 5'UTR-driven reporter translation, confirmation, H4 neuroglioma cells, luminescence (AID 1988); type: functional, cell-based
[23] = inhibitors of firefly luciferase expression or activity, dose response, H4 neuroglioma cells, luminescence (AID 1990); type: functional, cell-based

Chain of Cytochrome P450 2C9 (P11712 whole entry): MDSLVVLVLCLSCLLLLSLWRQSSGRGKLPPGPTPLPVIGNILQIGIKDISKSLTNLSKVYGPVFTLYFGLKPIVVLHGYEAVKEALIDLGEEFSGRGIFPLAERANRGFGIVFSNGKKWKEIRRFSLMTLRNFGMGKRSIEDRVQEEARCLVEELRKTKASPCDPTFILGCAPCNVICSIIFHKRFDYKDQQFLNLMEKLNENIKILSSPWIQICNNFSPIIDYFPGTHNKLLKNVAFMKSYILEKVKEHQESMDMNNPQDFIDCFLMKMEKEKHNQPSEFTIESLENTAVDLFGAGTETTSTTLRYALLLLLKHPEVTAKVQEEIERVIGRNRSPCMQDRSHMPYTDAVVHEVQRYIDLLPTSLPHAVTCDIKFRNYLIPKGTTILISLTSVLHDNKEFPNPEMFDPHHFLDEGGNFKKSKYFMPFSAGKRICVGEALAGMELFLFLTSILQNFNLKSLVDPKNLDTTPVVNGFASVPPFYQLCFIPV
Chain of Voltage-gated inwardly rectifying potassium channel KCNH2 (Q12809 whole entry): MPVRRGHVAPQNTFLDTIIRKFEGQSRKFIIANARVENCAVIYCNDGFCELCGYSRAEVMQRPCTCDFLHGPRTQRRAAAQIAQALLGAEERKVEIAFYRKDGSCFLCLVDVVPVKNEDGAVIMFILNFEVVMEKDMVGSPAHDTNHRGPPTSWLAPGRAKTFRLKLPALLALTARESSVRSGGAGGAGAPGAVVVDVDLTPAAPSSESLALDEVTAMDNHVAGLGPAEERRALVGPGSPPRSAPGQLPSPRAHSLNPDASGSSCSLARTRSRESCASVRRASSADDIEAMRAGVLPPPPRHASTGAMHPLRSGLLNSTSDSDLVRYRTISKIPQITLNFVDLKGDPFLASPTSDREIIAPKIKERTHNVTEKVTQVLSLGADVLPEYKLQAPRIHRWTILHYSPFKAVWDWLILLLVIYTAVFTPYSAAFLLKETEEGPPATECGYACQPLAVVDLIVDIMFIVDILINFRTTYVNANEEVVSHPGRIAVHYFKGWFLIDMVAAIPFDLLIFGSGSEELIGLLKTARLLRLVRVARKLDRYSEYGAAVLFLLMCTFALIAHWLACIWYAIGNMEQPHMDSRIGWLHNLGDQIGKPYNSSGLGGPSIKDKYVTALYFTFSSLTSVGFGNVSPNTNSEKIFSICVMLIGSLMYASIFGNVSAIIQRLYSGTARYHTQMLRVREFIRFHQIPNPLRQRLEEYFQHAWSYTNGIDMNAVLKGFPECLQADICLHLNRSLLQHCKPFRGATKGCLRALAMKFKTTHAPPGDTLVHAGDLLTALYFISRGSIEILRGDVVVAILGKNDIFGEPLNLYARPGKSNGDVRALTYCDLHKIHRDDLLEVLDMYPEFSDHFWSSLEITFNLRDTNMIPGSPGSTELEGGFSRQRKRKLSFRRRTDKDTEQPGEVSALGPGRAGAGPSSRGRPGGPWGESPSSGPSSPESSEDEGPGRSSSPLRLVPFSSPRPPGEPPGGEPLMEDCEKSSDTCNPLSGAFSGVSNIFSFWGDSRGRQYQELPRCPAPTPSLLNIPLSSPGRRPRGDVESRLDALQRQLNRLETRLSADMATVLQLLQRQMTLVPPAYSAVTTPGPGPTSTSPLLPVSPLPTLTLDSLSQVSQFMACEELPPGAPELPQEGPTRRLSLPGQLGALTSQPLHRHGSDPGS
Chain of Peroxisome proliferator-activated receptor gamma/Nuclear receptor coactivator 3 (P37231 whole entry): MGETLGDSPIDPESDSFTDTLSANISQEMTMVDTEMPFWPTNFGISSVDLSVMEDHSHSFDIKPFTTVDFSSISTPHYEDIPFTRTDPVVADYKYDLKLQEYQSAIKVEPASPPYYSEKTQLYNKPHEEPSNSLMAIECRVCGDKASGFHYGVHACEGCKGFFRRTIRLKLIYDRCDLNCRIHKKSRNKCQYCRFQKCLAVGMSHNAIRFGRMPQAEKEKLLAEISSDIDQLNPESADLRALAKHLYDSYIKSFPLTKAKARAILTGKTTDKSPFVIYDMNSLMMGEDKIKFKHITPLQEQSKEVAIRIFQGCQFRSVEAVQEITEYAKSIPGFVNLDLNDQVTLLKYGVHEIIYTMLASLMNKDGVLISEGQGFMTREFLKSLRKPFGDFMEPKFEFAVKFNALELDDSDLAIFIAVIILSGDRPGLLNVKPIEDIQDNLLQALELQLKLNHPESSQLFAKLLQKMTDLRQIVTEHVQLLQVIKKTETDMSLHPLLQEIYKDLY
Chain of Peroxisome proliferator-activated receptor gamma/Nuclear receptor coactivator 3 (Q9Y6Q9 whole entry, further chain): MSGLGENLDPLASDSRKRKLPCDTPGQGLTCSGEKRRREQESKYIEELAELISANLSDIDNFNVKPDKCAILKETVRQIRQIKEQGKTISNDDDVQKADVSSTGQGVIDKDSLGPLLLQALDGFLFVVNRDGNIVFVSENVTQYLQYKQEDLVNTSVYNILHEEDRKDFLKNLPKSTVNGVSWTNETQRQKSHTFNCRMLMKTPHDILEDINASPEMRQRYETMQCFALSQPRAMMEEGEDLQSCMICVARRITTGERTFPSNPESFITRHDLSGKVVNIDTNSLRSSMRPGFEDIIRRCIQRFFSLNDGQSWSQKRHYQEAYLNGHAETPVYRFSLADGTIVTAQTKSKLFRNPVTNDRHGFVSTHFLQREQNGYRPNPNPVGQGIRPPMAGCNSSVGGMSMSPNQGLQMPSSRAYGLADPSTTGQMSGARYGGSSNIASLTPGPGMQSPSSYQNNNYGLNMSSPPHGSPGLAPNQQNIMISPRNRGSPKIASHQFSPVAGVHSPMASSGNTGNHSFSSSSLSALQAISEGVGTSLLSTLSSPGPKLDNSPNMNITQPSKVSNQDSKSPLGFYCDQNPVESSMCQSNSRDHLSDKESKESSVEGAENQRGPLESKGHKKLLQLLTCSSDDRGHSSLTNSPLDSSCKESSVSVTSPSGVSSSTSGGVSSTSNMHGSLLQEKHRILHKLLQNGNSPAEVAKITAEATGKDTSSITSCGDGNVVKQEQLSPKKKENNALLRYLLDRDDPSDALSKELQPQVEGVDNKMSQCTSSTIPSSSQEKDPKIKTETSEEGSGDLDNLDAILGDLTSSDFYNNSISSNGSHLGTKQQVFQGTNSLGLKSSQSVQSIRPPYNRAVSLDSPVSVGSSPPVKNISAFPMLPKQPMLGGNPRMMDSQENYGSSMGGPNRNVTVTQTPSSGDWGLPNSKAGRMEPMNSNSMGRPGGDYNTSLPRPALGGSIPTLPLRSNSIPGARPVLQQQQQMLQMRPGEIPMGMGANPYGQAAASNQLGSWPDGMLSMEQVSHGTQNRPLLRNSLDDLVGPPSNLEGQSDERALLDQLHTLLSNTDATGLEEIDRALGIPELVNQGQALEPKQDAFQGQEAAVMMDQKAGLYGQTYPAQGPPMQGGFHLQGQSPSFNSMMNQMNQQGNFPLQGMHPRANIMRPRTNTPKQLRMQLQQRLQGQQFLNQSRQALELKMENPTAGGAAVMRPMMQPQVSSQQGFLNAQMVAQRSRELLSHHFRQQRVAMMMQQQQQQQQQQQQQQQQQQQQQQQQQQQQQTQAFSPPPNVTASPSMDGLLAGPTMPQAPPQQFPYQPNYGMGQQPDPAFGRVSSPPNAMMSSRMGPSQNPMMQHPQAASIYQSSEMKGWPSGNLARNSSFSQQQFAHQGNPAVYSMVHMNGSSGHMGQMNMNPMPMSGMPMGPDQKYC
Chain of Mu-type opioid receptor (P35372 whole entry): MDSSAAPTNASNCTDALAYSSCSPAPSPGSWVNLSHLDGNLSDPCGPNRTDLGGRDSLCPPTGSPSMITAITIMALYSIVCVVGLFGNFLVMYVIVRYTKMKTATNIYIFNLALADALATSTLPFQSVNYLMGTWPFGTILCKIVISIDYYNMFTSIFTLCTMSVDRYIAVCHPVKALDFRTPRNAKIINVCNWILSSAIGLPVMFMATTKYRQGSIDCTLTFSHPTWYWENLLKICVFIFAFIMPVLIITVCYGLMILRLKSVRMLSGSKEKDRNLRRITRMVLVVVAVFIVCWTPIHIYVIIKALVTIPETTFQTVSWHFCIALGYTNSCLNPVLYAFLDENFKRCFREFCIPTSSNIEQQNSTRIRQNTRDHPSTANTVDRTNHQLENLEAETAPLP
Chain of 5-hydroxytryptamine receptor 2A (P35363 whole entry): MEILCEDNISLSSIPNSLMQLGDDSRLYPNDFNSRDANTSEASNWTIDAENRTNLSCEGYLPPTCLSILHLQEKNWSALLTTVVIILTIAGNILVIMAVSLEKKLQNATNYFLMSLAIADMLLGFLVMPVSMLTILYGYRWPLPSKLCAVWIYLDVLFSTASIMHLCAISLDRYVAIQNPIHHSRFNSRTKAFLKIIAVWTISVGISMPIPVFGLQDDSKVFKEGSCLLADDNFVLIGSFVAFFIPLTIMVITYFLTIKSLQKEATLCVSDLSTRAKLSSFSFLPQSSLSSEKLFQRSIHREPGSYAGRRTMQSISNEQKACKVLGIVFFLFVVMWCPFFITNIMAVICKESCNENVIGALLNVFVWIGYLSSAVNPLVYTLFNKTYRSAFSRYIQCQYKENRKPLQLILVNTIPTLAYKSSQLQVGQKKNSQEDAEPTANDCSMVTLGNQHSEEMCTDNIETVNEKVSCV

CN(C)S(=O)(=O)c1ccc(NC(=O)/C=C/c2ccccc2Cl)cc1
AC50 [1]: 4.18 µM (active)

CCC(C)NC(=O)CSc1nc2ccsc2c(=O)n1NC(=O)c1ccccc1 (configuration not stated)
IC50 [2]: > 50 µM (inactive)

CCCCN(C)CCNC(=O)c1ccc(Cn2c(=S)[nH]c3ccc(Br)cc3c2=O)cc1
EC50 [3]: 0.606 µM (active) | CC50 [4]: 19.1 µM (active) | IC50 [5]: > 20 µM (inactive) | IC50 [6]: 19.5 µM (active) | IC50 [7]: > 20 µM (inactive) | EC50 [8]: > 60 µM (not active)

Cc1ccc(C=Nn2c(-c3ccncc3)n[nH]c2=S)cc1
IC50 [9]: 16.1 µM (active) | IC50 [10]: > 100 µM (inactive)

CCN1CCN(C(=O)CSc2cc(=O)n(C)c3ccccc23)CC1
EC50 [11]: > 79.4 µM (not active) | EC50 [12]: > 79.4 µM (inactive) | EC50 [13]: > 79.4 µM (not active)

CC1Cc2cc3c(cc2C(c2ccc(N)cc2)=NN1)OCO3 (configuration not stated)
AC50 [14]: 35.5 µM (inconclusive)

Cc1cccc(C(=O)NC(=S)N2CCN(C)CC2)c1
AC50 [15]: inconclusive

CC(C)(C)c1ccc(C(=O)N2CCC(=O)c3ccc(Cl)cc32)cc1
IC50 [16]: > 25 µM (inactive)

O=C(NCC(=O)N1CCN(S(=O)(=O)/C=C/c2ccccc2)CC1)c1ccccc1F
IC50 [2]: > 50 µM (inactive)

C[C@@H](O)C1NC(=O)[C@H](CCCCN)NC(=O)c2cc([N+](=O)[O-])cc(F)c2NCCCC[C@@H](C(N)=O)NC1=O (some centres not stated)
IC50 [5]: > 20 µM (inactive) | IC50 [6]: 14.2 µM (active) | IC50 [7]: > 20 µM (inactive)

Cc1cc(C)c2sc(N(CCCN(C)C)C(=O)c3ccc(S(=O)(=O)N(C)Cc4ccccc4)cc3)nc2c1
IC50 [5]: > 20 µM (inactive) | IC50 [6]: 4.77 µM (active) | IC50 [7]: 2.65 µM (active)

Cn1cc(C(F)(F)F)nc1-c1ccc(OCC(O)CNCCOc2ccc(O)c(C(N)=O)c2)cc1 (configuration not stated)
EC50 [17]: 0.0952 µM (active) | AC50 [14]: 25.1 µM (inconclusive) | EC50 [18]: 92.4 µM (inactive)

O=C1NC(=S)S/C1=C/c1ccc(Oc2cnccn2)cc1
AC50 [19]: 2.81 µM (active)

CCCCCCC(=O)Nc1cc(Cl)ccc1C(=O)O
IC50 [16]: > 25 µM (inactive)

CC(=O)c1sc(N2CCOCC2)nc1-c1ccccc1
EC50 [11]: > 8.82 µM (not active) | EC50 [12]: > 26.5 µM (inactive) | EC50 [13]: > 79.4 µM (not active)

CCc1ccc(-c2nc(CSCC(=O)NCc3ccco3)c(C)o2)cc1
IC50 [20]: > 80 µM (inactive) | EC50 [21]: 0.462 µM (active) | EC50 [22]: 12.8 µM (active) | EC50 [23]: 14.5 µM (active)

NC(Cc1cccc(-c2ccccc2CP(=O)(O)O)c1)C(=O)O (configuration not stated)
AC50 [14]: 35.5 µM (inconclusive)

O=C(Cn1sc2ccccc2c1=O)NCc1ccccc1
IC50 [16]: 5.72 µM (active)

O=C(O)c1cccc(CN2CCCCC2)c1
AC50 [15]: inconclusive

CCN(CCCNC(=O)CSc1cc(=O)n(C)c2cc(Cl)ccc12)Cc1ccccc1
EC50 [11]: > 79.4 µM (not active) | EC50 [12]: > 79.4 µM (inactive) | EC50 [13]: > 79.4 µM (not active)

COc1ccc(/C=C(\C#N)C(N)=O)c(OC)c1
AC50 [15]: inconclusive
